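All cell lines were grown in 96-well plates and treated with compound for 48 hours. GI50 is the concentration that inhibits growth by half. Definition used: TGI = concentration required for complete inhibition of growth.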
Columns and labels:
Assay in all cases: growth of human tumour cells (NCI), 48 h; in the data active = GI50 below about 0.43 µM; inactive = the rest
DU-145 prostate = tested on: DU-145 prostate
SW-620 colon = tested on: SW-620 colon
HCT-116 colon = tested on: HCT-116 colon
NCI-H522 lung = tested on: NCI-H522 lung
SF-539 CNS = tested on: SF-539 CNS
A549 NSCLC = tested on: A549 NSCLC
LOX IMVI melanoma = tested on: LOX IMVI melanoma
EKVX NSCLC = tested on: EKVX NSCLC
NCI-H23 lung = tested on: NCI-H23 lung
RXF 393 renal = tested on: RXF 393 renal
UO-31 renal = tested on: UO-31 renal
COLO 205 colon = tested on: COLO 205 colon
MALME-3M melanoma = tested on: MALME-3M melanoma
U251 CNS = tested on: U251 CNS
IGROV1 ovarian = tested on: IGROV1 ovarian
HCT-15 colon = tested on: HCT-15 colon
HCC-2998 colon = tested on: HCC-2998 colon
MOLT-4 leukemia = tested on: MOLT-4 leukemia
TK-10 renal = tested on: TK-10 renal
SK-OV-3 ovarian = tested on: SK-OV-3 ovarian
OVCAR-4 ovarian = tested on: OVCAR-4 ovarian
BT-549 breast = tested on: BT-549 breast
CCRF-CEM leukemia = tested on: CCRF-CEM leukemia
HL-60(TB) leukemia = tested on: HL-60(TB) leukemia
786-0 renal = tested on: 786-0 renal
SR leukemia = tested on: SR leukemia
UACC-62 melanoma = tested on: UACC-62 melanoma
SF-268 CNS = tested on: SF-268 CNS
PC-3 prostate = tested on: PC-3 prostate
NCI/ADR-RES ovarian = tested on: NCI/ADR-RES ovarian
MDA-MB-435 = tested on: MDA-MB-435
OVCAR-3 ovarian = tested on: OVCAR-3 ovarian
HS 578T breast = tested on: HS 578T breast
SN12C renal = tested on: SN12C renal
K-562 leukemia = tested on: K-562 leukemia
SF-295 CNS = tested on: SF-295 CNS
UACC-257 melanoma = tested on: UACC-257 melanoma
SK-MEL-2 melanoma = tested on: SK-MEL-2 melanoma
MDA-MB-231 breast = tested on: MDA-MB-231 breast
A498 renal = tested on: A498 renal
M14 melanoma = tested on: M14 melanoma
ACHN renal = tested on: ACHN renal
SNB-19 CNS = tested on: SNB-19 CNS
HOP-92 NSCLC = tested on: HOP-92 NSCLC
HT29 colon = tested on: HT29 colon
T-47D breast = tested on: T-47D breast
CAKI-1 renal = tested on: CAKI-1 renal
SNB-75 CNS = tested on: SNB-75 CNS
RPMI-8226 leukemia = tested on: RPMI-8226 leukemia
KM12 colon = tested on: KM12 colon
NCI-H226 lung = tested on: NCI-H226 lung
MCF7 breast = tested on: MCF7 breast
NCI-H460 lung = tested on: NCI-H460 lung
OVCAR-8 ovarian = tested on: OVCAR-8 ovarian
HOP-62 NSCLC = tested on: HOP-62 NSCLC
SK-MEL-28 melanoma = tested on: SK-MEL-28 melanoma

CCc1cccc2c3c(sc12)C(c1ccc(Cl)cc1)C(C#N)=C(/N=C/c1ccc(Cl)cc1)O3 (configuration not stated)
23600 nM: TGI (SK-MEL-2 melanoma)
1220 nM: TGI (SNB-75 CNS)
active: GI50 (SW-620 colon) 360 nM | GI50 (HCT-116 colon) 347 nM | GI50 (NCI-H522 lung) 206 nM | GI50 (IGROV1 ovarian) 377 nM | GI50 (HCT-15 colon) 317 nM | GI50 (SR leukemia) 290 nM | GI50 (UACC-62 melanoma) 306 nM | GI50 (NCI/ADR-RES ovarian) 214 nM | GI50 (MDA-MB-435) 162 nM | GI50 (K-562 leukemia) 234 nM | GI50 (SF-295 CNS) 177 nM | GI50 (A498 renal) 280 nM | GI50 (SNB-75 CNS) 104 nM | GI50 (KM12 colon) 417 nM | GI50 (MCF7 breast) 248 nM
45500 nM: TGI (HOP-92 NSCLC)
22300 nM: TGI (HOP-62 NSCLC)
35100 nM: TGI (HS 578T breast)
15800 nM: TGI (SNB-19 CNS)
17000 nM: TGI (U251 CNS)
2960 nM: TGI (NCI-H522 lung)
44500 nM: TGI (UACC-62 melanoma)
788 nM: TGI (MDA-MB-435)
4920 nM: TGI (A498 renal)
8380 nM: TGI (NCI/ADR-RES ovarian)
> 50000 nM: TGI (DU-145 prostate) | TGI (SW-620 colon) | TGI (HCT-116 colon) | TGI (A549 NSCLC) | TGI (LOX IMVI melanoma) | TGI (EKVX NSCLC) | TGI (NCI-H23 lung) | TGI (UO-31 renal) | TGI (COLO 205 colon) | TGI (MALME-3M melanoma) | TGI (IGROV1 ovarian) | TGI (HCT-15 colon) | TGI (HCC-2998 colon) | TGI (MOLT-4 leukemia) | TGI (TK-10 renal) | TGI (SK-OV-3 ovarian) | TGI (OVCAR-4 ovarian) | TGI (BT-549 breast) | TGI (CCRF-CEM leukemia) | TGI (HL-60(TB) leukemia) | TGI (786-0 renal) | TGI (SF-268 CNS) | TGI (PC-3 prostate) | TGI (SN12C renal) | TGI (K-562 leukemia) | TGI (UACC-257 melanoma) | TGI (MDA-MB-231 breast) | TGI (M14 melanoma) | TGI (ACHN renal) | TGI (HT29 colon) | TGI (T-47D breast) | TGI (CAKI-1 renal) | TGI (RPMI-8226 leukemia) | TGI (KM12 colon) | TGI (NCI-H226 lung) | TGI (MCF7 breast) | TGI (NCI-H460 lung) | TGI (OVCAR-8 ovarian) | TGI (SK-MEL-28 melanoma)
36300 nM: TGI (SR leukemia)
806 nM: TGI (SF-295 CNS)
2090 nM: TGI (SF-539 CNS)
25200 nM: TGI (OVCAR-3 ovarian)
2660 nM: TGI (RXF 393 renal)
inactive: GI50 (DU-145 prostate) 1270 nM | GI50 (SF-539 CNS) 755 nM | GI50 (A549 NSCLC) 670 nM | GI50 (LOX IMVI melanoma) 905 nM | GI50 (EKVX NSCLC) 1340 nM | GI50 (NCI-H23 lung) 2510 nM | GI50 (RXF 393 renal) 578 nM | GI50 (UO-31 renal) 1690 nM | GI50 (COLO 205 colon) 1590 nM | GI50 (MALME-3M melanoma) 4720 nM | GI50 (U251 CNS) 1660 nM | GI50 (HCC-2998 colon) 1080 nM | GI50 (MOLT-4 leukemia) 1650 nM | GI50 (TK-10 renal) 8460 nM | GI50 (SK-OV-3 ovarian) 2790 nM | GI50 (OVCAR-4 ovarian) > 50000 nM | GI50 (BT-549 breast) 2360 nM | GI50 (CCRF-CEM leukemia) 892 nM | GI50 (HL-60(TB) leukemia) 577 nM | GI50 (786-0 renal) 1630 nM | GI50 (SF-268 CNS) 10900 nM | GI50 (PC-3 prostate) 556 nM | GI50 (OVCAR-3 ovarian) 433 nM | GI50 (HS 578T breast) 1180 nM | GI50 (SN12C renal) 1930 nM | GI50 (UACC-257 melanoma) 21400 nM | GI50 (SK-MEL-2 melanoma) 797 nM | GI50 (MDA-MB-231 breast) 2400 nM | GI50 (M14 melanoma) 582 nM | GI50 (ACHN renal) 779 nM | GI50 (SNB-19 CNS) 1200 nM | GI50 (HOP-92 NSCLC) 7660 nM | GI50 (HT29 colon) 1200 nM | GI50 (T-47D breast) 1130 nM | GI50 (CAKI-1 renal) 1290 nM | GI50 (RPMI-8226 leukemia) 1060 nM | GI50 (NCI-H226 lung) 6310 nM | GI50 (NCI-H460 lung) 1020 nM | GI50 (OVCAR-8 ovarian) 1600 nM | GI50 (HOP-62 NSCLC) 2080 nM | GI50 (SK-MEL-28 melanoma) 9500 nM
